pIC50: −log10 of the molar value.
Target: Mitogen-activated protein kinase 1 (Homo sapiens, UniProt P28482)
Assay: IMAP-FP Assay
Method: Activated ERK2 activity was determined in an IMAP-FP assay (Molecular Devices).

Sequence of Mitogen-activated protein kinase 1 (P28482 whole entry): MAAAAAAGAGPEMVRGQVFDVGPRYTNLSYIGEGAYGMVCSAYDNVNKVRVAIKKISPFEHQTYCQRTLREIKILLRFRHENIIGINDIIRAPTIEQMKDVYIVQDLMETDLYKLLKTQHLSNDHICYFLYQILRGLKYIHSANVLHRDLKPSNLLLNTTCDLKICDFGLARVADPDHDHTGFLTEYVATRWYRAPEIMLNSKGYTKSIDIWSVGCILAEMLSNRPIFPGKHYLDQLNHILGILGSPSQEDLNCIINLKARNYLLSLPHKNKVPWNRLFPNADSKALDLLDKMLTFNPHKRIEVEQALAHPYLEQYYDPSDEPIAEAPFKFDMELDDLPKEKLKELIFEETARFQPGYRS

**Q.** With `COC1CN(c2n[nH]c3cc(NC(=O)N[C@H](C)c4ccc(F)cc4)ncc23)C1` [US9233979, 23] as the molecule, how does the pIC50 read?
**A.** The pIC50 was 8.06.

Reference: BindingDB's records for patent US9233979 (Merck Sharp & Dohme, 2016)
